Test results reported in patent US20160000127A1, “MANGO FLAVOR COMPOSITIONS” (MARS, INCORPORATED, priority 2013, published 2016).

Tests used:
[1] = Aroma extract dilution analysis (AEDA) by GC-O of aroma isolates of fresh mango cultivars; settings: GC-O on FFAP column; for FD factor M: Malindi (M) mango cultivar aroma isolate; for FD factor WA: White Alfonso (WA) mango cultivar aroma isolate; for FD factor H: Haden (H) mango cultivar aroma isolate, highest dilution at which the aroma was detectable; for FD factor PS: Praya Sowoy (PS) mango cultivar aroma isolate; for FD factor RS: Royal Special (RS) mango cultivar aroma isolate
Excerpt: The presently disclosed subject matter was developed in part by analytical analyses on regional mangos performed to avoid overlooking any key compounds that can greatly influence the natural flavorings. To overcome the lack of distinct cultivar flavors available for true-fruit mango tastes, the presently disclosed subject matter has created a flavor system using aroma extract dilution analysis (AEDA) on fresh fruit from various mango cultivars. In addition, sensory experiments with the flavor compositions of the formulas given together with omission experiments were used to determine the relative importance of some of the components in the manufactured flavorings. A Flavor Dilution (FD)-chromatogram of the odorants was obtained for the odorants perceived in aroma extracts of various mango samples. FD-factors reflect the highest dilution at which a substance is still smelled and these are typically determined by AEDA.
AEDA is known as a powerful screening method used for the detection of aroma compounds, which combines a quantitative gas chromatography olfactometry (GCO) procedure for determining the potency of odorants in food. Using FD values from the AEDA tests, a base flavor system using compounds found in all the cultivars was created. Next, cultivars were characterized by their differences and cultivar components were designed by combining compounds identified as contributing to the distinct differences. The base and cultivar flavors were confirmed by creating a flavor system and testing the flavor system in a model confectionery product.
Volatile compounds are extracted from the fruit samples. For example, compounds are extracted with diethyl ether and an aroma isolate was prepared via high vacuum distillation. The aroma isolate was then serially diluted to a range of dilutions from 2 to 1,024. The various dilutions are then analyzed by GCO.
The FD factor data depict the highest dilution at which an odorant is still detectable by GCO. FD factors are relative measurements. The measurement is the ratio of the initial concentration to its most dilute extraction. Such measurements are proportional to a compounds odor activity value (OAV), which is the ratio of the concentration to an odor threshold in the air.
Fresh ripe mangos were peeled, the seed was removed, and the flesh was cut into small 4 cm^3 sections. The sections were immediately frozen in liquid nitrogen, ground into a fine powder with a laboratory mill and sequentially extracted with freshly distilled diethyl ether (1×100 mL; 1×50 mL) on an autoshaker at room temperature for 10 minutes. After centrifugation (5000 rpm for 5 minutes), the supernatants were combined and the residue was discarded. The organic layer was then separated in a separatory funnel and the aqueous layer was discarded. The ether extract (total volume: 150 mL) was then subjected to high-vacuum distillation using the SAFE technique (Engel, W.; Bahr, W.; Schieberle, P., Solvent assisted flavour evaporation—a new and versatile technique for the careful and direct isolation of aroma compounds from complex food matrices. European Food Research and Technology 1999, 209, 237-241.). The distillation apparatus was thermostated at 40° C. and kept under high vacuum (10-5 mbar). The sample was dropped into the extraction flask of the apparatus over 40 minutes, after which the extraction was continued for an additional 30 minutes. At the completion of the extraction time, the vacuum was broken and the collection flask was removed. The sample was thawed at room temperature and dried over anhydrous sodium sulfate. The sample was then concentrated to approximately 2 ml using a Vigreux column (50×1 cm) held at 50° C. and finally concentrated (total volume: 200 uL) under a gentle stream of nitrogen. The aroma quality of the isolate was then evaluated to ensure that it closely matched the odor quality of the fresh ripe mango flesh.
An Agilent 6890 series GC system was used for GC-O analysis. […]

[2] = cited from earlier work; for recognition (ppb) / detection (ppb): Table 8, representative threshold level; for recognition (ppb): point at which a specific taste is recognizable; for detection (ppb): point at which a taste is detected compared to a control such as water; for recog. ppb: Table 21, odor thresholds from literature (footnotes a-g)
[3] = Odor threshold levels (recognition and detection) of odorants; settings: Tables 1-5, relative to the other odorants of the same group
Excerpt: As used herein, “threshold level” relates to an amount at which a flavor is detected or recognized. A detection level is the point at which a taste is detected as compared to a control such as water. A recognition level is the point at which a specific taste is recognizable.
Additional measurements can be used as a proxy for potency, whereby similar calculations can be configured to prepare a base blend. For example, threshold levels can be used to determine a reference point for potency. For example, threshold levels include detection levels, where a taste is detected in comparison to a control, for example water. Threshold levels also include recognition levels whereby a taste is specifically recognized, which is generally a higher level than a mere detection level. The threshold levels achieve an equivalent organoleptic effect whereby a specific target is either detectable or recognized.
By way of example, the following table provides representative threshold levels in ppb for both detection and recognition levels.
The specific odorant listed has been categorized one of the highest potency odorants within the noted class. As such, the highest potency relates to the littlest amount to be used in the composition. Therefore, relative potencies are then computed by orders of magnitude as detailed in the above Table. Additional threshold levels are discussed below in Example 4.
The following Example provides odor thresholds of weakest and strongest odorants with the different aroma groups, as well as alternative compounds for the first tier of odorants. These odorants are representative in defining the unique sensory attributes of the aroma isolates of the different cultivars.

Structure (SMILES)	FD factor WA [1]	recog. ppb [2]	FD factor H [1]	FD factor PS [1]	also measured
C=CC(=C)CCC=C(C)C [myrcene]	128	4.9 ppb	–	–	FD factor M [1]: 128; recognition (ppb) [2]: 4.9 ppb; detection (ppb) [2]: 1.2 ppb
CCOC(=O)C(C)C [ethyl-2-methypropanoate]	–	0.22 ppb	512	–	–
CC/C=C/CC=O [(E)-3-hexenal]	–	160 ppb	–	512	–
C=C/C(C)=C/CC=C(C)C [β-(E)-ocimene]	128	34 ppb	–	–	–
CCCC(=O)OCC [ethyl butanoate]	128	2.4 ppb	2048	128	FD factor RS [1]: 32
COC1=C(C)OC(C)C1=O (stereo not drawn) [4-methoxy-2,5-dimethyl-3(2H)-furanone]	–	3400 ppb	–	–	FD factor RS [1]: 128
CC1=CCC(C(C)(C)S)CC1 (stereo not drawn) [1-p-menthene-8-thiol]	–	0.0001 ppb	–	–	–
CCCCCC(=O)C(C)C(C)=O (stereo not drawn) [3-methyl-2,4-nonandione]	–	–	–	128	–
CCCC1CCCC(=O)O1 (stereo not drawn) [δ-octalactone]	128	–	512	–	FD factor M [1]: 128
C=CC=CC=CCC=CCC [1,3,5,8-undecatetraene]	128	–	–	–	FD factor M [1]: 512; FD factor RS [1]: 512
OCCc1ccccc1 [2-phenylethanol]	–	–	128	–	–
CC(=O)C1=NCCC1 [2-acetyl-1-pyrroline]	–	–	512	128	FD factor M [1]: 512
CC1=C(O)C(=O)OC1C (stereo not drawn) [3-hydroxy-4,5-dimethyl-2(5H)-furanone]	–	1.1 ppb	–	–	potency within odorant group (footnote *) [3]: *Most potent; recognition (ppb) [2]: 1.1 ppb; detection (ppb) [2]: 0.49 ppb
CC(=O)/C=C/C1=C(C)CCCC1(C)C [β-ionone]	512	8.4 ppb	–	–	FD factor M [1]: 32; FD factor RS [1]: 512; recognition (ppb) [2]: 8.4 ppb; detection (ppb) [2]: 3.5 ppb
CCCCCCC1CCC(=O)O1 (stereo not drawn) [γ-decalactone]	–	2.6 ppb	–	–	–
C=C/C=C/C=C\CCCCC [1-(E,Z)-3,5-undecatriene]	512	0.003 ppb	512	–	potency within odorant group (footnote *) [3]: *Most potent; recognition (ppb) [2]: 0.003 ppb

Structure (SMILES)	FD factor WA [1]	recog. ppb [2]	FD factor H [1]	FD factor PS [1]	also measured
CCCCC1CCC(=O)O1 (stereo not drawn) [γ-octalactone]	512	24 ppb	512	128	FD factor M [1]: 512; FD factor RS [1]: 512; potency within odorant group (footnote *) [3]: *Most potent; recognition (ppb) [2]: 24 ppb; detection (ppb) [2]: 6.5 ppb
CC(=O)CCC1=C(C)CCCC1(C)C [dihydro-β-ionone]	–	–	–	–	FD factor RS [1]: 128
CC1=C(O)C(=O)C(C)O1 (stereo not drawn) [4-hydroxy-2,5-dimethyl-3(2H)-furanone]	2048	160 ppb	2048	2048	FD factor M [1]: 2048; FD factor RS [1]: 2048
C=C/C(C)=C\CC=C(C)C [β-(Z)-ocimene]	512	34 ppb	–	–	–
CCCCCC/C=C/C=O [(E)-2-nonenal]	–	0.4 ppb	–	128	–
CCCC(=O)O [butanoic acid]	–	7700 ppb	–	128	–
CCOC(=O)CC(C)C [ethyl-3-methylbutanoate]	–	0.11 ppb	2048	–	–
CC/C=C\CC=O [(Z)-3-hexenal]	–	0.21 ppb	–	128	–
CCCCCC1CCCC(=O)O1 (stereo not drawn) [δ-decalactone]	–	51 ppb	–	–	–
CSCCC=O [3-(methylthio)-propanal]	32	–	512	–	–
CCOC(=O)C(C)CC (stereo not drawn) [ethyl-2-methybutanoate]	–	0.063 ppb	512	–	potency within odorant group (footnote *) [3]: *Most potent; recognition (ppb) [2]: 0.063 ppb; detection (ppb) [2]: 0.013 ppb
CC(=O)C(C)=O [2,3-butandione]	–	2.9 ppb	–	32	–
CCc1ncc(C)nc1CC [2,3-diethyl-5 methyl pyrazine]	–	–	–	–	FD factor RS [1]: 128
CC(=O)CC(C)(C)S [4-mercapto-4-methyl-2-pentanone]	–	0.0001 ppb	–	–	recognition (ppb) [2]: 0.0001 ppb
CC/C=C\CC/C=C/C=O [(E,Z)-2,6-nonadienal]	–	0.0091 ppb	–	128	potency within odorant group (footnote *) [3]: *Most potent; recognition (ppb) [2]: 0.0091 ppb; detection (ppb) [2]: 0.0045 ppb
